Drawing on ChEMBL document CHEMBL5291721, “A preclinical secondary pharmacology resource illuminates target-adverse drug reaction associations of marketed drugs” (Nat Commun, 2023), this text covers AC50 for twelve compounds.

The structures appear in SMILES notation.

In assay [1] the target is Kappa-type opioid receptor (Homo sapiens, UniProt P41145).
For a further assay, the target named is Histamine H3 receptor (Homo sapiens, UniProt Q9Y5N1).
In the next assay the target is Vasopressin V1a receptor (Homo sapiens, UniProt P37288).
Assay [2] deals with Delta-type opioid receptor (Homo sapiens, UniProt P41143).
Assay [3] deals with T1, Muscarinic acetylcholine receptor M1 (Homo sapiens, UniProt P11229).
T1 sequence (P11229 whole entry): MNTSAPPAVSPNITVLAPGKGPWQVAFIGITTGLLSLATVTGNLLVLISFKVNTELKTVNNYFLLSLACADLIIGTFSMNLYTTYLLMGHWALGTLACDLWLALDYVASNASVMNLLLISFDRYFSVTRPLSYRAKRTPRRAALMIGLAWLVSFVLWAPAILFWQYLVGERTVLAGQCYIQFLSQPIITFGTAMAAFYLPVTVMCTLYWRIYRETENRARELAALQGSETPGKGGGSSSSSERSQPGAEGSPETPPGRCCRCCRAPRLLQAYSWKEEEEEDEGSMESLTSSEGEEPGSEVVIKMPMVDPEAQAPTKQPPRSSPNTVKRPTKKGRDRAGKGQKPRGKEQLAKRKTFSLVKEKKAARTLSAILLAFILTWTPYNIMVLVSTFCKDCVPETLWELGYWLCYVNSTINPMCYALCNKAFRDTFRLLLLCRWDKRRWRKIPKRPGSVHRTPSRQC
It counts as functional.

Assay [4] deals with 5-hydroxytryptamine receptor 2B (Homo sapiens, UniProt P41595). It is filed as functional, cell-based.
In assay [5] the target is T2, Neuropeptide Y receptor type 1 (Homo sapiens, UniProt P25929).
T2 sequence (P25929 whole entry): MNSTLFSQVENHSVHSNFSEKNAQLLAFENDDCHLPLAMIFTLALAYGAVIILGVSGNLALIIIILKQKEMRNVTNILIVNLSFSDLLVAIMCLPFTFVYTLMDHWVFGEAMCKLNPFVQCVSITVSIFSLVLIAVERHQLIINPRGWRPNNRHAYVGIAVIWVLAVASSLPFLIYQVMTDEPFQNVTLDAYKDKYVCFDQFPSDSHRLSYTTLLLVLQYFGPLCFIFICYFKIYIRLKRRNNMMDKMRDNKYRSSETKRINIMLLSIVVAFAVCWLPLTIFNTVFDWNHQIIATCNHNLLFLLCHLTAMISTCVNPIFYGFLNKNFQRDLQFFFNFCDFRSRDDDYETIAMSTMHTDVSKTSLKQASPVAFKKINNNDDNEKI

Assay [6] addresses T3, Muscarinic acetylcholine receptor M2 (Homo sapiens, UniProt P08172).
T3 sequence (P08172 whole entry): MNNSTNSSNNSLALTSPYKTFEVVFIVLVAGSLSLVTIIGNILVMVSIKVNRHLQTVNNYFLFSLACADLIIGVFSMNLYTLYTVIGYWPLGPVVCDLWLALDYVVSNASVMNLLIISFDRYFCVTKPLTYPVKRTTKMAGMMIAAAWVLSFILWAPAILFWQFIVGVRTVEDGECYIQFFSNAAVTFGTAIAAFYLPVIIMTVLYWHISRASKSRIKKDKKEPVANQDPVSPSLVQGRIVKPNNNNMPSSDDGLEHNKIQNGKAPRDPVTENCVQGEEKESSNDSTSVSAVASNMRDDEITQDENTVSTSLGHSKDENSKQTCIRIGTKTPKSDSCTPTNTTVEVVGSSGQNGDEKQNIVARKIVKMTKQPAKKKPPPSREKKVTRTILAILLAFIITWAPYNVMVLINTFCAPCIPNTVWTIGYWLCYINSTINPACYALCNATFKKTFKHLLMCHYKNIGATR
It is filed as functional, cell-based.

For assay [7], the target named is Sodium-dependent dopamine transporter (Homo sapiens, UniProt Q01959).
Assay [8] deals with Voltage-gated inwardly rectifying potassium channel KCNH2 (Homo sapiens, UniProt Q12809). It is filed as functional. As to conditions: read-out: AC50.
Assay [9] concerns the target T4, Alpha-2C adrenergic receptor (Homo sapiens, UniProt P18825).
T4 sequence (P18825 whole entry): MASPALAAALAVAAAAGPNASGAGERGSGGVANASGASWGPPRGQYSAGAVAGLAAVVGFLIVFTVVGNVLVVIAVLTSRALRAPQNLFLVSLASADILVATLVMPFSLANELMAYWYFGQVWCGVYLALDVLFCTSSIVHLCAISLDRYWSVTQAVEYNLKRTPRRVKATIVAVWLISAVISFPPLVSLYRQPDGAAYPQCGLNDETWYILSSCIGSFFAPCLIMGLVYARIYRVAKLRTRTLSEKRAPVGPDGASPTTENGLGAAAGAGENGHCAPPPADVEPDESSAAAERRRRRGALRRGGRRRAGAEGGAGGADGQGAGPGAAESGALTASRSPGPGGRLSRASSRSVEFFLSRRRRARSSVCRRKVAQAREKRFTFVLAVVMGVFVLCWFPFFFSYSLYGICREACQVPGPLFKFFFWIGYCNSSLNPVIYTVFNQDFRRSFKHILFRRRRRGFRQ
It is filed as functional.

Assay [10] has as its target T5, 5-hydroxytryptamine receptor 2C (Homo sapiens, UniProt P28335).
T5 sequence (P28335 whole entry): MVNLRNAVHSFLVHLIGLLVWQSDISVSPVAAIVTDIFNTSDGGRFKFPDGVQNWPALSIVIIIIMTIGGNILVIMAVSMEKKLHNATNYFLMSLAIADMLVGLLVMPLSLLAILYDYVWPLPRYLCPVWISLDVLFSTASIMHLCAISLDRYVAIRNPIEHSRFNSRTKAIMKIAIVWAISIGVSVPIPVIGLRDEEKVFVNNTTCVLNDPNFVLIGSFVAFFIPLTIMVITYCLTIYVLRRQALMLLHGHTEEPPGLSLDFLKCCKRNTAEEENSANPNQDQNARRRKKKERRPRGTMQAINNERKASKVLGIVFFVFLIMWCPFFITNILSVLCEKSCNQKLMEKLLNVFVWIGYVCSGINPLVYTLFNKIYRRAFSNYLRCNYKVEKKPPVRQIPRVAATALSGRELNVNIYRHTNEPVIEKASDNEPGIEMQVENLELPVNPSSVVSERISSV
Note: assay procedure not described here.

Sequence of Vasopressin V1a receptor (P37288 whole entry): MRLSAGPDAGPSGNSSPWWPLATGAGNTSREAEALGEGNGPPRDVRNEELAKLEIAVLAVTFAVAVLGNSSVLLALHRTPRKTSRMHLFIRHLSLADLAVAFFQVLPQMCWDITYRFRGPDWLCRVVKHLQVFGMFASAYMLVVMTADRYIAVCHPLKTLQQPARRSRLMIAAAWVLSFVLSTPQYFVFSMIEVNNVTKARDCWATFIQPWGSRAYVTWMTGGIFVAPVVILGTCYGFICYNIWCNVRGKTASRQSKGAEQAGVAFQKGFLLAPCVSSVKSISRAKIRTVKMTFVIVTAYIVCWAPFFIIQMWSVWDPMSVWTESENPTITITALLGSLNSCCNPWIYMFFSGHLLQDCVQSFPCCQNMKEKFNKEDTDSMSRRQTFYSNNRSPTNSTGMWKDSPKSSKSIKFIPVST
Sequence of Sodium-dependent dopamine transporter (Q01959 whole entry): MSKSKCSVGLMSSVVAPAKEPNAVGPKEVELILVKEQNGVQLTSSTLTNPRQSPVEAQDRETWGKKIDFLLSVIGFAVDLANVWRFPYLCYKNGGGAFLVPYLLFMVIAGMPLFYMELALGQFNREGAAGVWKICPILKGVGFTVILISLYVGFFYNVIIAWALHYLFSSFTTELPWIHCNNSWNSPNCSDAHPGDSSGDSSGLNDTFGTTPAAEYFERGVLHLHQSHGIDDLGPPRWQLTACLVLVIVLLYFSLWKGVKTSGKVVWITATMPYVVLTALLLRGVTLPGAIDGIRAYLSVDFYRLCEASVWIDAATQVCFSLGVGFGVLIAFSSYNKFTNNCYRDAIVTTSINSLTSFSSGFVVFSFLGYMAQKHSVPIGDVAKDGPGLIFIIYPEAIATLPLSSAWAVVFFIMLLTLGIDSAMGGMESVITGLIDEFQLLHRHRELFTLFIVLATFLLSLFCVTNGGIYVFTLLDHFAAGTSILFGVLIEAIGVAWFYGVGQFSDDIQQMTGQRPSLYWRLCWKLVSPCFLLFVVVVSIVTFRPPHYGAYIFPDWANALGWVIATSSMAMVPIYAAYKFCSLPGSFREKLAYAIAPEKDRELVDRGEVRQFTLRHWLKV
Sequence of Voltage-gated inwardly rectifying potassium channel KCNH2 (Q12809 whole entry): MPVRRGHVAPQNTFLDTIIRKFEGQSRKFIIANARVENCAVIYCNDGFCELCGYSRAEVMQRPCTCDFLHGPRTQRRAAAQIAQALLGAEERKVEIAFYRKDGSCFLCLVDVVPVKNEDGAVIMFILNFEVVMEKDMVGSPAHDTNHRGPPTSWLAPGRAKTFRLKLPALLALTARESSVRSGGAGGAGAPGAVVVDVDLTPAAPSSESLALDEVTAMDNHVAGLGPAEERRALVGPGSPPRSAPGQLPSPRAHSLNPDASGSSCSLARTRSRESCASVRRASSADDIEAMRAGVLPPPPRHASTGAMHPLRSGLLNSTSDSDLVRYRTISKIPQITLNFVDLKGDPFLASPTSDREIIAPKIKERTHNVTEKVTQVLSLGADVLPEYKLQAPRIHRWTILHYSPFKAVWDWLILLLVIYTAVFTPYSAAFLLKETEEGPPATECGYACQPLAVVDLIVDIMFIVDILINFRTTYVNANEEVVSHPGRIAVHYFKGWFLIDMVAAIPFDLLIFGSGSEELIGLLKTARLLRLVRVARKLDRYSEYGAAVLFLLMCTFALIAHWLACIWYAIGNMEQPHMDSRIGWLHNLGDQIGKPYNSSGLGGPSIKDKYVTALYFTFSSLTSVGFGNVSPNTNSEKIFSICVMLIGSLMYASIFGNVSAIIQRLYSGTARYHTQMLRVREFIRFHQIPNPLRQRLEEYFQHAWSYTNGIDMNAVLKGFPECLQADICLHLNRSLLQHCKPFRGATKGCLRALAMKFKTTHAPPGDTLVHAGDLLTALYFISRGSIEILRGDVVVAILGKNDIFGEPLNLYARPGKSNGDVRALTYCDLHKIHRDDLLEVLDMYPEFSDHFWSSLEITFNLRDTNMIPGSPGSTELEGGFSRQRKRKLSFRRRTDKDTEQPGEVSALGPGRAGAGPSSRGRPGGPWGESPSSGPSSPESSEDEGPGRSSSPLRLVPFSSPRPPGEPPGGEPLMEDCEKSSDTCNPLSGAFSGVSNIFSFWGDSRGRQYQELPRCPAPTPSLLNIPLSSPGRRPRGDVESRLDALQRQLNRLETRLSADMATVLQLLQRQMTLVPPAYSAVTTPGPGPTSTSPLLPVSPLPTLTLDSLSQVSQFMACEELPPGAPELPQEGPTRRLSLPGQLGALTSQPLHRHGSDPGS
Sequence of 5-hydroxytryptamine receptor 2B (P41595 whole entry): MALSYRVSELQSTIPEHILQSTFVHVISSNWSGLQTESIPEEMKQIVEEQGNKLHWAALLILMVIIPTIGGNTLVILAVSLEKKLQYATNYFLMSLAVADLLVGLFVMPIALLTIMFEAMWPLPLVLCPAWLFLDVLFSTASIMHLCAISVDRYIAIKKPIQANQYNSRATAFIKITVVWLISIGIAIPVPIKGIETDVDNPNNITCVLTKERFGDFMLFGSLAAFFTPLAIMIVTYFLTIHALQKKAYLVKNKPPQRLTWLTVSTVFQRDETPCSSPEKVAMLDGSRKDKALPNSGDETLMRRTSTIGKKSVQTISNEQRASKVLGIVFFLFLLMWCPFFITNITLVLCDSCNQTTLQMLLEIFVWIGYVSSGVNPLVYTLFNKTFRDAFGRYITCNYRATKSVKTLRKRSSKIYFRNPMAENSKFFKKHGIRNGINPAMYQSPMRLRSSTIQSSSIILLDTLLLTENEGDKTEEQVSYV
Sequence of Delta-type opioid receptor (P41143 whole entry): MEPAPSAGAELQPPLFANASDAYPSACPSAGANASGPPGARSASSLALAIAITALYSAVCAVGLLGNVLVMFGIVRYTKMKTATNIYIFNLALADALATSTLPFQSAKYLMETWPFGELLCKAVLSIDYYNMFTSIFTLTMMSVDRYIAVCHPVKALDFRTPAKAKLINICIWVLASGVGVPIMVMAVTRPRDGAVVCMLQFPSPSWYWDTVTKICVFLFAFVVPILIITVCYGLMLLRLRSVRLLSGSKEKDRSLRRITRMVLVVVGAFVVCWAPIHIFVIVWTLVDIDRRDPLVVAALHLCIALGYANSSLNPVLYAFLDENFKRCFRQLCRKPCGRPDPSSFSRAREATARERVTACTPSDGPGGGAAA
Sequence of Kappa-type opioid receptor (P41145 whole entry): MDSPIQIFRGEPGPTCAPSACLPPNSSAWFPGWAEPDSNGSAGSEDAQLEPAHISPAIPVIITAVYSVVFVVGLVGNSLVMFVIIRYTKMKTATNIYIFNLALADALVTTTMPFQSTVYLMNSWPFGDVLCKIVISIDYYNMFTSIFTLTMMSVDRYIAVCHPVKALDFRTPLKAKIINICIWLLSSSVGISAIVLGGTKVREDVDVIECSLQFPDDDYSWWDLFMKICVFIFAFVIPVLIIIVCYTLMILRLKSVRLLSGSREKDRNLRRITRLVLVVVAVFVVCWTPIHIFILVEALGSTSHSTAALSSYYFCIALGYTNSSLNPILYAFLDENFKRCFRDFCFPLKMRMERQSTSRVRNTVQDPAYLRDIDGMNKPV
Sequence of Histamine H3 receptor (Q9Y5N1 whole entry): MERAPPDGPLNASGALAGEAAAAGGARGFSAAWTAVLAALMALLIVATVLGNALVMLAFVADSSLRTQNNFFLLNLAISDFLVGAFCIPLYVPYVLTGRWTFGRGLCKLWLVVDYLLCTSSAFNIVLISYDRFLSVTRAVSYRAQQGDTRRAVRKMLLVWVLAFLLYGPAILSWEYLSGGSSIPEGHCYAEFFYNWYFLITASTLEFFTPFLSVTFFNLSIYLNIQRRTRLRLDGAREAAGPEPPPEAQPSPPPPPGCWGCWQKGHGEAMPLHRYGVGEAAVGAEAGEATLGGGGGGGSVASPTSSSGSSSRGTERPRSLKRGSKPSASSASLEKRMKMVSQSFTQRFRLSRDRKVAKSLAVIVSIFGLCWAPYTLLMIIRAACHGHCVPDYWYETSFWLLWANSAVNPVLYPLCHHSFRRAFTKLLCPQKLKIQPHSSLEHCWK

For the compound `O=C1NCCN1CCN1CCC(c2cn(-c3ccc(F)cc3)c3ccc(Cl)cc23)CC1` [SERTINDOLE], the AC50 was 3.7 µM in [1]; over 30 µM on Histamine H3 receptor; over 30 µM at Vasopressin V1a receptor; over 30 µM in assay [2]; 5 µM in assay [3]; over 30 µM in assay [4]. The AC50 in assay [5] was over 30 µM; in [6] it was over 30 µM; in assay [7] it was 1.7 µM.

For the compound `O=C1CN=C(c2ccccc2)c2cc(Cl)ccc2N1CC(F)(F)F` [HALAZEPAM], the AC50 in [1] is 20 µM; in assay [8], over 30 µM; at Histamine H3 receptor it was over 30 µM; on Vasopressin V1a receptor it was over 30 µM; in [2] it was over 30 µM; in [3], over 30 µM. The AC50 in assay [4], in assay [5], in assay [6], in assay [9] and in assay [7] was over 30 µM each time.

With `CCOc1cc(N)c([N+](=O)[O-])cc1C(=O)NC1CCN(CC2CC=CCC2)CC1` (configuration not stated) [CINITAPRIDE], the AC50 in assay [1] is 9.1 µM; in assay [8] it was 0.31 µM; on Histamine H3 receptor it was 5.9 µM; on Vasopressin V1a receptor it was over 30 µM; in assay [2], over 30 µM; in assay [3], 14 µM. Further, the AC50 in assay [4] was over 30 µM; in [5], over 30 µM; in assay [6] it was over 30 µM; in [9], 1.3 µM; in assay [7] it was 20 µM.

Consider `Cc1c(C(=O)Nc2ccc(N3C[C@@H](C)O[C@@H](C)C3)nc2)cccc1-c1ccc(OC(F)(F)F)cc1` [SONIDEGIB], for which the concentration at half-maximal activity (AC50) is over 10 µM in [1]; over 10 µM at Histamine H3 receptor; over 10 µM at Vasopressin V1a receptor; over 10 µM in assay [2]; over 30 µM in [10]; over 10 µM in assay [3]. The half-maximal activity concentration (AC50) in assay [5] was over 30 µM; in [9] it was over 10 µM; in [7] it was over 10 µM.

With `CN1C(=O)CC(=O)N(c2ccccc2)c2cc(Cl)ccc21` [CLOBAZAM], the AC50 in assay [1] is 14.1 µM; in assay [8], over 30 µM; at Vasopressin V1a receptor, over 10 µM; in assay [2], over 30 µM; in assay [10] it was over 30 µM; in assay [3], over 10 µM. Also, the half-maximal activity concentration (AC50) in [4], in assay [5], in [6], in [9] and in [7] was over 10 µM throughout.

Take `CC1=CC(=O)c2ccccc2C1=O` [MENADIONE]: the AC50 was over 10 µM in [1]; over 30 µM in assay [8]; over 10 µM on Vasopressin V1a receptor; over 30 µM in [2]; over 30 µM in assay [10]; over 30 µM in assay [3]. Further, the AC50 was over 10 µM in [4]; over 10 µM in assay [5]; over 10 µM in assay [6]; over 30 µM in assay [9]; over 10 µM in [7].

`CC(C)C(=O)OCC(=O)[C@@]12O[C@H](C3CCCCC3)O[C@@H]1C[C@H]1[C@@H]3CCC4=CC(=O)C=C[C@]4(C)[C@H]3[C@@H](O)C[C@@]12C` [CICLESONIDE]: the concentration at half-maximal activity (AC50) was 9.72 µM in assay [1]; over 30 µM in [8]; over 10 µM on Vasopressin V1a receptor; over 30 µM in assay [2]; over 30 µM in assay [10]; over 10 µM in assay [3]. In addition, the concentration at half-maximal activity (AC50) in [4], in [5], in assay [6], in assay [9] and in [7] was over 10 µM throughout.

For the compound `CN1CCCN=C1COC(=O)C(O)(c1ccccc1)C1CCCCC1` (configuration not stated) [OXYPHENCYCLIMINE], the AC50 in assay [1] is over 10 µM; in assay [8] it was 3.77 µM; on Vasopressin V1a receptor, over 10 µM; in assay [2], over 30 µM; in [10], over 30 µM; in assay [3] it was 0.019 µM. For the same compound, the AC50 in assay [4] was over 10 µM; in assay [5], over 10 µM; in assay [6], over 10 µM; in assay [9], over 10 µM; in assay [7] it was over 30 µM.

Regarding `COC(=O)[C@H]1[C@@H](OC(=O)c2ccccc2)C[C@@H]2CC[C@H]1N2C` [COCAINE], the AC50 (in [1]; on Histamine H3 receptor; on Vasopressin V1a receptor; in [2]; in [10]; in assay [3]) was over 30 µM throughout. The concentration at half-maximal activity (AC50) in assay [4], in assay [5], in assay [6] and in assay [9] was over 30 µM throughout.

As to `CN1CC[C@]23CCCC[C@H]2[C@H]1Cc1ccc(O)cc13` [LEVORPHANOL], the AC50 was 5.85 µM in [1]; 13.4 µM in assay [8]; over 10 µM at Vasopressin V1a receptor; over 30 µM in [2]; over 30 µM in assay [10]; over 30 µM in [3]. Moreover, the AC50 in assay [4] is over 10 µM; in assay [5], over 10 µM; in [6] it was over 10 µM; in assay [9], over 30 µM; in assay [7], over 30 µM.

With `O=C(CCCCC(=O)Nc1c(I)cc(I)c(C(=O)O)c1I)Nc1c(I)cc(I)c(C(=O)O)c1I` [IODIPAMIDE], the AC50 in assay [1] was over 10 µM; in [8] it was over 30 µM; on Vasopressin V1a receptor it was over 10 µM; in assay [2], over 30 µM; in [10] it was over 30 µM; in assay [3], over 10 µM. Besides, the concentration at half-maximal activity (AC50) in [4], in assay [5], in assay [6], in [9] and in [7] was over 10 µM each time.

Regarding `CC(C)[N+](C)(CCC(C(N)=O)(c1ccccc1)c1ccccc1)C(C)C` [ISOPROPAMIDE], the AC50 in [1] is over 10 µM; in [8], 3.3 µM; on Vasopressin V1a receptor it was over 10 µM; in assay [2], over 30 µM; in assay [10], over 30 µM; in assay [3], 0.013 µM. The AC50 in [4], in assay [5], in assay [6], in [9] and in assay [7] was over 10 µM in each case.

One may read the AC50 as the concentration at which the activity in the assay is half-maximal.
